Results taken from patent US20260183350A1, “ANTIBIOTIC-RESISTANT BACTERIA” (priority 2022, published 2026).

What was measured:
faecal microbiota = assay: Faecal batch culture with antibiotics promoting CRE colonisation: 1H-NMR of nutrients and metabolites; type: cell-based, human; conditions: 11 healthy donors, antibiotic at faecal concentration, 24 hours anaerobic
Experimental: The inventors performed faecal culture experiments to measure the effects of eight broad-spectrum antibiotics on the faecal microbiota collected from 11 healthy human donors. Faecal culture experiments were performed under anaerobic conditions using a complex gut growth medium that was designed to mimic the nutrients found in the human distal gut (McDonald, J. A. et al. Evaluation of microbial community reproducibility, stability and composition in a human distal gut chemostat model. J. Microbiol. Methods 95, 167-174 (2013)). […] Moon, Y. S., Chung, K. C. & Gill, M. A. Pharmacokinetics of meropenem in animals, healthy volunteers, and patients. Clin Infect Dis 24, S249-S255 (1997). Kager, L., Brismar, B., Malmborg, A. S. & Nord, C. E. Imipenem concentrations in colorectal surgery and impact on the colonic microflora. Antimicrob Agents Chemother 33, 204-8 (1989). Pletz, M. et al. Ertapenem pharmacokinetics and impact on intestinal microflora, in comparison to those of ceftriaxone, after multiple dosing in male and female volunteers. Antimicrob Agents Chemother 48, 3765-72 (2004). Nord, C. E., Brismar, B., Kasholm-Tengve, B. & Tunevall, G. Effect of piperacillin/tazobactam treatment on human bowel microflora. J Antimicrob Chemother 31, 61-5 (1993). […] Antimicrob Agents Chemother 63, 2244 (2019). Pessôa de Menezes e Silva, C H. Elaboration and evaluation of a new screening medium for detection and presumptive identification of extended-spectrum beta-lactamase-producing organisms (ESBL). Braz J Microbiol 31, 271-274 (2000). Brismar, B., Edlund, C., Malmborg, A. S. & Nord, C. […] Antimicrob Agents Chemother 34, 481-3 (1990)). Cultures were incubated anaerobically at 37° C. for 24 hours. Samples were analysed by ^1H-NMR spectroscopy (for nutrient and metabolite profiling) and […] rRNA gene sequencing with 16S rRNA gene qPCR (for bacterial composition and biomass) (McDonald, J. A. K. et a/. Inhibiting Growth of Clostridioides difficile by Restoring Valerate, Produced by the Intestinal Microbiota. Gastroenterology 155, 1495-1507 (2018)).
Supernatants were prepared from faeces by vortexing 300 mg of faeces in 900 μl of HPLC-grade water for 10 minutes at 3000 rpm followed by centrifugation at 17,000×g for 10 minutes at 4° C. Supernatants were prepared from faecal culture samples by centrifugation at 17,000×g for 10 minutes at 4° C. Supernatants were frozen at −80° C. until they were ready for analysis.
^1H-NMR spectroscopy was performed as previously described (McDonald, J. A. K. et al. Inhibiting Growth of Clostridioides difficile by Restoring Valerate, Produced by the Intestinal Microbiota. Gastroenterology 155, 1495-1507 (2018)). Briefly, sample supernatants were randomized and defrosted at room temperature for 1 hour. Sample supernatants were then centrifuged for 10 min at 17 000×g and 4° C. The pellet was discarded and 400 μl of supernatant was added to 250 μl NMR buffer (28.85 g Na2HPO4, 5.25 g NaH2PO4, 1 mM TSP, 3 mM NaN3, deuterium oxide to 1 L, pH 7.4). 600 μl of sample was used to fill each 5 mm NMR tube to be loaded into the SampleJet system.
^1H-NMR spectroscopy was performed using the Bruker AVANCE III HD 800 MHz spectrometer (Bruker Bio-Spin, Rheinstetten, Germany). 1D spectra (a standard NOESYGPPR1D pulse sequence (RD-90°-t1-90°-tm-90°-ACQ)) as well as 2D spectra (standard 2D JRESGPPRQF pulse sequence) were acquired. A recycle delay of 4 seconds and mixing time of 100 ms was used. The 90° pulse length was approximately 10 μs and 32 scans were recorded.
NMR spectra were imported into MATLAB r2019b (The Mathworks, USA) using an in-house script. Spectra were aligned and the water (4.6-5 ppm) and TSP (−0.2-0.2 ppm) peaks were cut. Compounds were identified by comparison to spectral databases in Chenomx NMR Suite (Chenomx, Canada). Representative peaks were integrated for quantification of compounds.

[1] = test system: NDM-1 Klebsiella pneumoniae; assay: Carbon utilisation assay; type: cell-based; conditions: M9 minimal medium, 0.5% (w/v) carbon source
Experimental: (§1) New Delhi Metallo-β-lactamase 1 (NDM-1) Escherichia coli, NDM-1 Klebsiella pneumoniae, and NDM-1 Enterobacter cloacae were isolated from patients with intestinal CRE colonisation from the Imperial College Healthcare NHS Trust via rectal swab (REC ref. 19/LO/0112). The species were assigned by matrix assisted laser desorption ionization-time of flight (MALDI-TOF) mass spectrometry and later confirmed with 16S rRNA gene sequencing. CRE status was determined using X-pert Carba-R PCR detection (Cepheid, Sunnyvale, CA, USA), (Otter, J. A. et al. Detecting carbapenemase-producing Enterobacterales (CPE): an evaluation of an enhanced CPE infection control and screening programme in acute care. J Antimicrob Chemother 75, 2670-2676 (2020)).
(§2) Growth of CRE isolates on sole carbon or nitrogen sources was tested by inoculating each CRE isolate into a minimal medium supplemented with the nutrient of interest. First, CRE isolates were passaged from frozen glycerol stocks on Reasoner's 2A agar (R2A) plates. Cells were then suspended in M9 minimal media to a turbidity of 42% using a Turbidimeter (Biolog Inc.), then diluted a further 1 in 6 to inoculate the carbon or nitrogen utilisation assays. M9 minimal media contained the following (at final concentrations): 22 mM KH2PO4, 42 mM Na2HPO4, 9 mM NaCl, 0.49 mM MgSO4·7H2O, 0.09 mM CaCl2), 0.011 mM FeSO4·7H2O. For the carbon assays the M9 minimal medium was also supplemented with 0.1% (w/v) NH4Cl (as the nitrogen source) and the carbon sources were individually tested at 0.5% (w/v) concentration. For the nitrogen assays the M9 minimal medium was also supplemented with 0.5% (w/v) glucose (as the carbon source) and the nitrogen sources were individually tested at 0.1% (w/v) concentration. Cultures were incubated anaerobically and aerobically in a plate reader and OD600 readings were collected every 15 minutes for 24 hours.
(§3) Growth curves were analysed in Python (v3.6.5) using the AMiGA software (Midani, F. S., Collins, J. & Britton, R. A. AMiGA: Software for Automated Analysis of Microbial Growth Assays. mSystems 6, e0050821 (2021)). Growth of each isolate was measured with 6 wells from 2-3 independent experiments. Growth curves were normalised to the no substrate control using the subtraction method. AMiGA performed Gaussian Process regression to test differential growth between the substrate and the no substrate control. The functional difference in the OD (and its credible interval) was also computed between the substrate and the no substrate control.

NDM-1 Escherichia coli [2] = assay: Carbon utilisation assay; type: cell-based; conditions: M9 minimal medium, 0.5% (w/v) carbon source
Experimental: as §1, §2, §3

[3] = test system: NDM-1 Enterobacter cloacae; assay: Carbon utilisation assay; type: cell-based; conditions: anaerobic; M9 minimal medium, 0.5% (w/v) carbon source
Experimental: as §1, §2, §3

[4] = test system: vancomycin-resistant E. faecium; assay: VRE nutrient utilization protocol: carbon sources; type: cell-based, Enterococcus faecium; conditions: aerobic; VRE minimal medium
Experimental: (§4) VRE minimal media consists of potassium phosphate monobasic (4 g/L), potassium phosphate dibasic (14 g/L), sodium citrate (1 g/L), magnesium sulphate (0.2 g/L), ammonium sulphate (2 g/L), adenosine (0.04 g/L), thymine (0.04 g/L), Kao and Michayluk vitamin solution [Sigma, K3129, 50× Stock](5×), glucose (1 g/L) and amino acid solution [Sigma, R7131, RPMI-1640, 50×](25×). If the study was performed under anaerobic conditions, fumarate (5.2 g/L) was added to increase growth of VRE strains. Carbon-free minimal media was prepared by leaving out glucose while nitrogen-free minimal media was prepared without the amino acid solution. Media was filter sterilized with a 0.22 micron filter and used immediately aerobically or degassed overnight if used anaerobically.
(§5) VRE strains were grown on R2A overnight before the cells were suspended in 0.9% saline to an OD of 0.38 (λ=595 nm). A 10% dilution of the cell suspension was prepared using VRE minimal media to achieve a final well OD of […] (λ=595 nm) greater than the sterile media OD. Both carbon and nitrogen source utilization were evaluated by adding the inoculated media and a filter-sterilised nutrient source solution into a well in a 1:1 ration to a final volume of 100 μL in aerobic tests and 200 μL in anaerobic tests. Carbon sources were tested individually and compared to a carbon-free control. To test nitrogen source utilization, a nitrogen source solution was prepared containing L-alanine (2 g/L), L-arginine (2.5 g/L, L-asparagine (0.71 g/L), L-aspartate (0.25 g/L), L-cysteine (0.625 g/L), L-glutamate (0.25 g/L), L-Glycine (0.125 g/L), L-histidine (0.1875 g/L), L-isoleucine (0.625 g/L), L-leucine (0.625 g/L), L-lysine HCl (0.5 g/L), L-methionine (0.1875 g/L), L-phenylalanine (0.1875 g/L), L-proline (0.25 g/L), L-serine (0.375 g/L), L-threonine (0.25 g/L), L-tryptophan (0.0625 g/L), L-tyrosine (0.29 g/L), L-valine (0.25 g/L), N-acetylglucosamine (2 g/L), and uracil (2.5 g/L). To test the strains' ability to utilize individual nitrogen sources, separate solutions were prepared eliminating one nitrogen source each. The change in growth compared to the complete nitrogen source solution control was used to determine nitrogen utilization. All carbon and nitrogen sources were tested in a technical triplicate for each biological replicate. Aerobic plates were incubated with a plate seal while anaerobic plates were not. The aerobic plate reader was set to read the plate (λ=595 nm, 37° C., 22 flashes per well, orbital shaking of 100 rpm for 15 s prior to each read) every 15 minutes for 24 hours. The anaerobic plate reader read the plate (λ=595 nm, 37° C., stationary) every 15 minutes for 24 hours.

[5] = test system: vancomycin-resistant E. faecalis; assay: VRE nutrient utilization protocol: carbon sources; type: cell-based, Enterococcus faecalis; conditions: aerobic; VRE minimal medium
Experimental: as §4, §5

NDM-1 Escherichia coli [6] = assay: Nutrient preference assay (nutrient mixture); type: cell-based; conditions: aerobic; M9 with […] of each nutrient, up to 24 hours
Experimental: as §1
CRE isolates were passaged once from frozen glycerol stocks on R2A plates. Cells were suspended in M9 minimal media to a turbidity of 42% using a Turbidimeter (Biolog Inc.), then diluted 1 in 6 to inoculate the nutrient preference assays. M9 minimal media was supplemented with 0.015% of each of the following: L-arabinose, D-fructose, L-fucose, D-galactose, D-glucose, D-mannose, D-ribose, D-xylose, N-acetylglucosamine, D-maltose, sucrose, D-trehalose, L-alanine, L-arginine, L-aspartate, L-glutamate, L-glycine, L-isoleucine, L-leucine, L-lysine, L-methionine, L-phenylalanine, L-proline, L-threonine, L-tryptophan, L-tyrosine, L-valine, uracil, and succinate. Cultures were incubated anaerobically and aerobically in a plate reader and OD600 readings were collected every 15 minutes for 24 hours. Cultures were also incubated anaerobically and aerobically for 24 h and samples were collected at 0, 4, 8, and 24 hours post-inoculation for 1H-NMR spectroscopy. Changes in nutrients and metabolites by CRE isolates was compared to the sterile media control over time using a two-way mixed ANOVA followed by pairwise comparisons with Bonferroni correction. […]

Row | Compound | Change in butyrate concentration in faecal cultures (faecal microbiota) | Use as sole carbon source to support K. pneumoniae growth ([1]; anaerobic) | Use as sole carbon source to support E. coli growth (NDM-1 Escherichia coli [2]; aerobic) | Use as sole carbon source to support E. cloacae growth [3] | Use as sole carbon source to support E. faecium growth [4] | Use as sole carbon source to support E. faecalis growth [5] | Use as sole carbon source to support K. pneumoniae growth ([1]; aerobic) | Utilisation of nutrient by E. coli from nutrient mixture (1H-NMR) (NDM-1 Escherichia coli [6]) | Use as sole carbon source to support E. coli growth (NDM-1 Escherichia coli [2]; anaerobic)
1 | imipenem/cilastatin [IPM] | increased |  |  |  |  |  |  |  | 
2 | OC[C@H]1O[C@H](O[C@H]2[C@H](O)[C@@H](O)[C@H](O)O[C@@H]2CO)[C@H](O)[C@@H](O)[C@@H]1O [maltose, D-maltose] |  | could use | able to grow | could use | could use | could use |  |  | 
3 | C[C@@H](O)[C@H]1C(=O)N2C(C(=O)O)=C(S[C@@H]3CN[C@H](C(=O)N(C)C)C3)[C@H](C)[C@H]12 [MEM, meropenem] | increased |  |  |  |  |  |  |  | 
4 | O=C[C@H](O)[C@H](O)[C@H](O)CO [ribose, D-ribose] |  |  | able to grow | could use | could use | could use | able to grow |  | 
5 | C[C@@H](O)[C@H]1C(=O)N2C(C(=O)O)=C(S[C@@H]3CN[C@H](C(=O)Nc4cccc(C(=O)O)c4)C3)[C@H](C)[C@H]12 [ETP, ertapenem] | decreased |  |  |  |  |  |  |  | 
6 | OC[C@H]1O[C@@](CO)(O[C@H]2O[C@H](CO)[C@@H](O)[C@H](O)[C@H]2O)[C@@H](O)[C@@H]1O [sucrose] |  | could use | able to grow | could use |  | could use |  | moderate utilisation | 
7 | O=C[C@H](O)[C@@H](O)[C@@H](O)[C@H](O)CO [galactose, D-galactose] |  | could use |  | could use | could use | could use |  |  | could use
8 | OC[C@H]1O[C@H](O[C@H]2O[C@H](CO)[C@@H](O)[C@H](O)[C@H]2O)[C@H](O)[C@@H](O)[C@@H]1O [trehalose, D-trehalose] |  | could use |  | could use | could use | could use |  |  | could use
